Patent publication US20170051149A1, “AZOARYLS AS REVERSIBLY MODULATABLE TUBULIN INHIBITORS” (ECOLE NORMALE SUPERIEURE DE LYON, priority 2014, published 2017)

Tests used:
Format in all cases: cell-based
[1] = test system: HeLa; assay: membrane permeability, PI uptake in nonpermeabilized cells; conditions: 70 h
Protocol: (§1) Membrane integrity was assessed as a marker of cellular viability, via examining the uptake of propidium iodide (PI) in nonpermeabilized cells according to a standard protocol. Namely, cells were harvested and incubated with 5 μg/mL PI in PBS containing 2% FCS (foetal calf serum), and immediately analysed by flow cytometry using a FACSCalibur flow cytometer.

[2] = test system: Jurkat cells; assay: as above; conditions: 48 h
Protocol: as §1

[3] = test system: MDA-MB-231; assay: as above; conditions: 70 h
Protocol: as §1

[4] = test system: Jurkat cells; assay: nuclear fragmentation (subG1, Nicoletti), induction of apoptosis; conditions: 48 h
Protocol: Different cell types, including MDA-MB-231, Jurkat, HeLa and HepG2 cells, were treated with indicated concentrations of compound I.1 and exposed to a 390 nm toxic regime, a rescue regime with both 390 nm and 515 nm light, or kept in the dark. Following the treatment, cells were stained with PI and the percentage of cells containing a hypodiploid amount of DNA (subG1 phase of cell cycle), was determined. Briefly, prior to analysis, cells were harvested on ice and incubated in a hypotonic buffer [0.1% sodium citrate, 0.1% Triton X-100 and 50 μg/mL propidium iodide (PI)] for 30 min at 4° C. Following the PI staining cells were analysed by flow cytometry using FACSCalibur flow cytometer (Becton Dickinson, Heidelberg, Germany) and Cell Quest Pro Software (Becton Dickinson).

[5] = 200 nM, 390 nm (1 s every 15 min)
[6] = 600 nM, 390 nm (1 s every 15 min)
[7] = 1.5 μM, 390 nm (1 s every 15 min)
[8] = 5 μM, 390 nm (1 s every 15 min)

## COc1ccc(N=Nc2cc(OC)c(OC)c(OC)c2)cc1O [I.1, 2-methoxy-5-((3,4,5-trimethoxyphenyl)diazenyl)phenol]
[1]; [5]
  mean % cells PI+: 4.5%
[1]; 200 nM, dark
  mean % cells PI+: 4.5%
[1]; [6]
  mean % cells PI+: 8.2%
[1]; 600 nM, dark
  mean % cells PI+: 4.3%
[1]; [7]
  mean % cells PI+: 46.1%
[1]; 1.5 μM, dark
  mean % cells PI+: 4.2%
[1]; [8]
  mean % cells PI+: 73.0%
[1]; 5 μM, dark
  mean % cells PI+: 5.1%
[2]; 50 nM, 390 nm (350 ms every 5 min)
  mean % cells PI+: 1.3%
[2]; 50 nM, Dark
  mean % cells PI+: 1.6%
[2]; 100 nM, 390 nm (350 ms every 5 min)
  mean % cells PI+: 2.3%
[2]; 100 nM, dark
  mean % cells PI+: 2.2%
[2]; 200 nM, 390 nm (350 ms every 5 min)
  mean % cells PI+: 3.4%
[2]; 200 nM, dark
  mean % cells PI+: 2.3%
[2]; 400 nM, 390 nm (350 ms every 5 min)
  mean % cells PI+: 6.3%
[2]; 400 nM, dark
  mean % cells PI+: 2.3%
[2]; 600 nM, 390 nm (350 ms every 5 min)
  mean % cells PI+: 8.1%
[2]; 600 nM, dark
  mean % cells PI+: 2.8%
[3]; [5]
  mean % cells PI+: 4.4%
[3]; 200 nM, dark
  mean % cells PI+: 5.0%
[3]; [6]
  mean % cells PI+: 8.2%
[3]; 600 nM, dark
  mean % cells PI+: 4.6%
[3]; [7]
  mean % cells PI+: 24.1%
[3]; 1.5 μM, dark
  mean % cells PI+: 4.3%
[3]; [8]
  mean % cells PI+: 47.2%
[3]; 5 μM, dark
  mean % cells PI+: 5.0%
[4]; 5 nM, 390 nm (350 ms pulses every 5 min)
  mean % subG1 phase: 2.7%
[4]; 5 nM, dark
  mean % subG1 phase: 3.0%
[4]; 50 nM, 390 nm (350 ms pulses every 5 min)
  mean % subG1 phase: 4.9%
[4]; 50 nM, dark
  mean % subG1 phase: 3.4%
[4]; 100 nM, 390 nm (350 ms pulses every 5 min)
  mean % subG1 phase: 9.1%
[4]; 100 nM, dark
  mean % subG1 phase: 3.5%
[4]; 150 nM, 390 nm (350 ms pulses every 5 min)
  mean % subG1 phase: 18.5%
[4]; 150 nM, dark
  mean % subG1 phase: 3.3%
[4]; 200 nM, 390 nm (350 ms pulses every 5 min)
  mean % subG1 phase: 49.7%
[4]; 200 nM, dark
  mean % subG1 phase: 3.0%
[4]; 400 nM, 390 nm (350 ms pulses every 5 min)
  mean % subG1 phase: 88.5%
[4]; 400 nM, dark
  mean % subG1 phase: 4.4%
[4]; 800 nM, 390 nm (350 ms pulses every 5 min)
  mean % subG1 phase: 89.5%
[4]; 800 nM, dark
  mean % subG1 phase: 5.5%
[4]; 1.5 μM, 390 nm (350 ms pulses every 5 min)
  mean % subG1 phase: 89.6%
[4]; 1.5 μM, dark
  mean % subG1 phase: 7.9%
[4]; 5 μM, 390 nm (350 ms pulses every 5 min)
  mean % subG1 phase: 91.0%
[4]; 5 μM, dark
  mean % subG1 phase: 12.0%
